According to patent US20090325902A1, “HETEROCYCLIC UREA DERIVATIVES AND METHODS OF USE THEREOF” (ASTRAZENECA AB, priority 2008, published 2009):
Values after ≈ are worked out from the molar mass of the structure shown.

How the values were obtained:
E. coli GyrB ATPase = E. coli GyrB ATPase (Escherichia coli, UniProt P0AES6); test: E. coli GyrB ATPase inhibition (ammonium molybdate/malachite green phosphate detection); type: biochemical
Description: E. coli GyrB ATPase Inhibition Activity: Compounds can be tested for inhibition of E. coli GyrB ATPase activity using an ammonium molybdate/malachite green-based phosphate detection assay (Lanzetta, P. A., L. J. Alvarez, P. S. Reinach, and O. A. Candia, 1979, 100: 95-97). Assays can be performed in multiwell plates in 30 μl reactions containing: 50 mM Hepes buffer pH 7.5, 75 mM ammonium acetate, 8.0 mM magnesium chloride, 0.5 mM ethylenediaminetetraacetic acid, 5% glycerol, 1 mM 1,4-Dithio-DL-threitol, 200 nM bovine serum albumin, 1.6 μg/ml sheared salmon sperm DNA, 400 pM E. coli GyrA, 400 pM E. coli GyrB, 250 μM ATP, and compound in dimethylsulfoxide. Reactions can be quenched with 30 μl of ammonium molybdate/malachite green detection reagent containing 1.2 mM malachite green hydrochloride, 8.5 mM ammonium molybdate tetrahydrate, and 1 M hydrochloric acid. Plates can be read in an absorbance plate reader at 650 nm and percent inhibition values are calculated using dimethylsulfoxide (2%)-containing reactions as 0% inhibition and EDTA-containing (2.4 μM) reactions as 100% inhibition controls. An IC50 measurement of compound potency for each compound can be determined from reactions performed in the presence of 10 different compound concentrations.

[1] = molecular target: E. coli Topoisomerase IV ATPase (Escherichia coli, UniProt P20083); test: E. coli Topoisomerase IV ATPase inhibition; type: biochemical
Description: E. coli Topoisomerase IV ATPase Inhibition Activity: Compounds can be tested for inhibition of E. coli topoisomerase IV ATPase activity as described above for E. coli GyrB except the 30 μl reactions contained the following: 20 mM TRIS buffer pH 8, 50 mM ammonium acetate, 8 mM magnesium chloride, 5% glycerol, 5 mM 1,4-Dithio-DL-threitol, 0.005% Brij-35, 5 μg/ml sheared salmon sperm DNA, 500 pM E. coli ParC, 500 pM E. coli ParE, 160 μM ATP, and compound in dimethylsulfoxide. An IC50 measurement of compound potency for each compound can be determined from reactions performed in the presence of 10 different compound concentrations.

S. aureus GyrB ATPase = S. aureus GyrB ATPase (Staphylococcus aureus, UniProt P0A0K8); test: S. aureus GyrB ATPase inhibition (ammonium molybdate/malachite green phosphate detection); type: biochemical; details: compound concentration of 1 μM; read-out: percent inhibition of S. aureus GyrB ATPase
Description: S. aureus GyrB ATPase Inhibition Activity: Compounds may be tested for inhibition of S. aureus GyrB ATPase activity using an ammonium molybdate/malachite green-based phosphate detection assay (Lanzetta, P. A., L. J. Alvarez, P. S. Reinach, and O. A. Candia, 1979, 100: 95-97). Assays can be performed in multiwell plates in 30 μl reactions containing: 50 mM Hepes buffer pH 7.5, 75 mM ammonium acetate, 8.0 mM magnesium chloride, 0.5 mM ethylenediaminetetraacetic acid, 5% glycerol, 1.0 mM 1,4-Dithio-DL-threitol, 200 nM bovine serum albumin, 1.0 μg/ml sheared salmon sperm DNA, 250 pM E. coli GyrA, 250 pM S. aureus GyrB, 250 μM ATP, and compound in dimethylsulfoxide. Reactions can be quenched with 30 μl of ammonium molybdate/malachite green detection reagent containing 1.2 mM malachite green hydrochloride, 8.5 mM ammonium molybdate tetrahydrate, and 1 M hydrochloric acid. Plates can be read in an absorbance plate reader at 650 nm and percent inhibition values can be calculated using dimethylsulfoxide (2%)-containing reactions as 0% inhibition and EDTA-containing ([…]) reactions as 100% inhibition controls. An IC50 measurement of compound potency for each compound can be determined from reactions performed in the presence of 10 different compound concentrations.

Streptococcus pneumoniae = test: Bacterial susceptibility testing in liquid media (MIC); type: cell-based; details: lowest drug concentration able to reduce growth by 80% or more, read-out: MIC against Streptococcus pneumoniae
Source text: Compounds may be tested for antimicrobial activity by susceptibility testing in liquid media. Compounds may be dissolved in dimethylsulfoxide and tested in 10 doubling dilutions in the susceptibility assays. The organisms used in the assay may be grown overnight on suitable agar media and then suspended in a liquid medium appropriate for the growth of the organism. The suspension can be a 0.5 McFarland and a further 1 in 10 dilution can be made into the same liquid medium to prepare the final organism suspension in 100 μL. Plates can be incubated under appropriate conditions at 37° C. for 24 hrs prior to reading. The Minimum Inhibitory Concentration (MIC) may be determined as the lowest drug concentration able to reduce growth by 80% or more.

Sequence of S. aureus GyrB ATPase (P0AES4 whole entry): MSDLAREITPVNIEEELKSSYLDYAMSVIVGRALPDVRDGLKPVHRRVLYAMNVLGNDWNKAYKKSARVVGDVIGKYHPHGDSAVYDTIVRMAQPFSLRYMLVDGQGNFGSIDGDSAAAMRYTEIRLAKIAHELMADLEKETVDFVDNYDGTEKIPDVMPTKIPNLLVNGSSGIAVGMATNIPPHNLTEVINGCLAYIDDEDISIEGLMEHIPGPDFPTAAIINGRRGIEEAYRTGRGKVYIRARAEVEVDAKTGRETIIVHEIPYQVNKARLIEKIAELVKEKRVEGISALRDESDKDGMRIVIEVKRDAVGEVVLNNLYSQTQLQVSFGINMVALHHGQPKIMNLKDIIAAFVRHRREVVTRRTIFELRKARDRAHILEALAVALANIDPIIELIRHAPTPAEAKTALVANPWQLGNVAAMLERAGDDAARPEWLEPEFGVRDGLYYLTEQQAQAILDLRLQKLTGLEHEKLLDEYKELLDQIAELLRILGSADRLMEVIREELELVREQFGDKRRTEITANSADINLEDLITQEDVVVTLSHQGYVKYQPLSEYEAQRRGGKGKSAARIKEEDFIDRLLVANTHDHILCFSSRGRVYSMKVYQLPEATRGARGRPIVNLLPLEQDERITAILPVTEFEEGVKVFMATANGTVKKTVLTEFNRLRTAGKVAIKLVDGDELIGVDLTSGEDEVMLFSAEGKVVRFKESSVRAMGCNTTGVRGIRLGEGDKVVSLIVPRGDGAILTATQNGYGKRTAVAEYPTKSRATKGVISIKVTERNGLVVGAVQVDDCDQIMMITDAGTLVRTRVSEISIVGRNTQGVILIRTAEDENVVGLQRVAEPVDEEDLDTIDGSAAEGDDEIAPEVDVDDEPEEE
Sequence of S. aureus GyrB ATPase (P0A0K8 whole entry): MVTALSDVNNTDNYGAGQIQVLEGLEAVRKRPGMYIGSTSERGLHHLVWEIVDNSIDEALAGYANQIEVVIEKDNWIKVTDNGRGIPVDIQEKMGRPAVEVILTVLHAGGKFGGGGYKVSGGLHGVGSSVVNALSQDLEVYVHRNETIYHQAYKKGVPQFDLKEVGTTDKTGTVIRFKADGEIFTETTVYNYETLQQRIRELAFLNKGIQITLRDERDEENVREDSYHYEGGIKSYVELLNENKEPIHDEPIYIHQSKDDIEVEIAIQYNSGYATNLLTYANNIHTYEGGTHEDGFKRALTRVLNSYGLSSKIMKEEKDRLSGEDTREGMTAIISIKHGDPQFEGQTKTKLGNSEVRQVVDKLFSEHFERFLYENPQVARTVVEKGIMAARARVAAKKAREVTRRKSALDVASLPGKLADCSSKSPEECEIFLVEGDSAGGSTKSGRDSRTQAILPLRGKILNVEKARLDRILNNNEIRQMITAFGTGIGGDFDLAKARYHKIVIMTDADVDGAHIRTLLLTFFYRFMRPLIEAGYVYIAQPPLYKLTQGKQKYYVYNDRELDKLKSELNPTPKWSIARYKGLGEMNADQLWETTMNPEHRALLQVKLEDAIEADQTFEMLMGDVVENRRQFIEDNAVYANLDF
Sequence of E. coli Topoisomerase IV ATPase (P0AFI2 whole entry): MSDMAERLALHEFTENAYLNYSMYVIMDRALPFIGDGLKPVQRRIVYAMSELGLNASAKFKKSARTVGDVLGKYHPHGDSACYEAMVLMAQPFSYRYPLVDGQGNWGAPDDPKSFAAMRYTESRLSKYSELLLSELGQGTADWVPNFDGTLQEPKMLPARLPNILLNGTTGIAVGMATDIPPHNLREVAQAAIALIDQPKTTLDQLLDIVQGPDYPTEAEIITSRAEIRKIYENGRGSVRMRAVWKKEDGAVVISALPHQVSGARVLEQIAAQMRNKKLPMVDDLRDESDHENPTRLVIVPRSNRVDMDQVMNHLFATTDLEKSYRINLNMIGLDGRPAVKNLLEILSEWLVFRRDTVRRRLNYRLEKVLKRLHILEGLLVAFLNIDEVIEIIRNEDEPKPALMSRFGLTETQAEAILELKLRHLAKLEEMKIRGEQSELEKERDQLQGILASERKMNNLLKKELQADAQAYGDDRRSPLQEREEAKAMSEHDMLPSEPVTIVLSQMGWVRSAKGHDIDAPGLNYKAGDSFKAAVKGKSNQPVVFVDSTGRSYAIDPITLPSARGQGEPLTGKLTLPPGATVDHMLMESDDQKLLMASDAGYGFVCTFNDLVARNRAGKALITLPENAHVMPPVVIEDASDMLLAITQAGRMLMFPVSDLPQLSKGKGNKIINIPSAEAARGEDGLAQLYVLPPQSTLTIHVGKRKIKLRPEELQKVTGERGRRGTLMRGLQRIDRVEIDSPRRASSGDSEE
Sequence of E. coli Topoisomerase IV ATPase (P20083 whole entry): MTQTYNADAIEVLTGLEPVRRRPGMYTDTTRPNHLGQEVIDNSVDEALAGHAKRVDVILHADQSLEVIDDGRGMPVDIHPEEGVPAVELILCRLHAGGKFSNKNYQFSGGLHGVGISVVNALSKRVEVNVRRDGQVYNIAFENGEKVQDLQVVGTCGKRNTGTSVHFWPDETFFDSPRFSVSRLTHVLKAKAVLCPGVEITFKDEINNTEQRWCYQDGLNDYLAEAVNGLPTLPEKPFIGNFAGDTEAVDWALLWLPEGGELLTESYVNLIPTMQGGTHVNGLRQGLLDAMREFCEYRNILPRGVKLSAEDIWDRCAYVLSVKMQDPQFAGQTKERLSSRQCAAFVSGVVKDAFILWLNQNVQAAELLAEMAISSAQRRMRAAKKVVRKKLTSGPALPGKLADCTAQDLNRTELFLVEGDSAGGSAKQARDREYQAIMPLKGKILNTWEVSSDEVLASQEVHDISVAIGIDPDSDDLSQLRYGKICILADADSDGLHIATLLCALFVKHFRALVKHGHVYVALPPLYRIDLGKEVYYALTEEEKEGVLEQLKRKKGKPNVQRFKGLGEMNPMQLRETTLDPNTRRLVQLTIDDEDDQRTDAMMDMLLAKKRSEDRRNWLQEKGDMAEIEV

SMILES: CCNC(=O)Nc1cc(C#Cc2ccccn2)c(-c2cncc(-c3n[nH]c(=O)o3)c2)cn1 [Example 1, 1-ethyl-3-(5′-(5-oxo-4,5-dihydro-1,3,4-oxadiazol-2-yl)-4-(pyridin-2-ylethynyl)-3,3′-bipyridin-6-yl)urea]
- IC50 (E. coli GyrB ATPase): < 200 µM
- IC50 [1]: < 200 µM
- inhibition at 1 µM (S. aureus GyrB ATPase): 102%
- MIC (Streptococcus pneumoniae): 0.2 µM (≈ 0.0855 µg/mL)
